Values joined by “and” are separate entries in the source; they are usually repeats but may differ in a detail not shown here. Equal entries are not always repeated. Toxic doses and inconclusive results are not listed. No stated cut-off is given here; in the data, active means T/C of 150% or more; inactive means T/C below 125%.
Tested on: L1210 leukemia ip in BDF1 mice, survival T/C
Assay: NCI In Vivo Anticancer Drug Screen. Data for tumor model L1210 Leukemia (intraperitoneal) in B6D2F1 (BDF1) mice
Conditions: endpoint: mean survival time, higher = longer survival
Outline: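 Tumor was transplanted into mice, which were then dosed with test compound or vehicle alone. Survival was recorded for each group, and the treated figure was expressed relative to the control figure.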

[1] = dose: 100.0 mg/kg/injection, schedule: Q01DX009 (ip), vehicle: saline with Tween-80
[2] = dose: 100.0 mg/kg/injection, schedule: Q04DX003 (ip), vehicle: saline with Tween-80
[3] = dose: 200.0 mg/kg/injection, schedule: Q01DX009 (ip), vehicle: saline with Tween-80
[4] = dose: 200.0 mg/kg/injection, schedule: Q04DX003 (ip), vehicle: saline with Tween-80
[5] = dose: 100.0 mg/kg/injection, schedule: Q04DX002 (ip), vehicle: Klucel (hydroxypropylcellulose) (HPC)
[6] = dose: 200.0 mg/kg/injection, schedule: Q04DX002 (ip), vehicle: Klucel (hydroxypropylcellulose) (HPC)
[7] = dose: 400.0 mg/kg/injection, schedule: Q04DX002 (ip), vehicle: Klucel (hydroxypropylcellulose) (HPC)
[8] = dose: 100.0 mg/kg/injection, schedule: Q04DX003 (ip), vehicle: saline
[9] = dose: 12.5 mg/kg/injection, schedule: Q04DX003 (ip), vehicle: Klucel (hydroxypropylcellulose) (HPC)
[10] = dose: 25.0 mg/kg/injection, schedule: Q01DX009 (ip), vehicle: Klucel (hydroxypropylcellulose) (HPC)
[11] = dose: 25.0 mg/kg/injection, schedule: Q04DX003 (ip), vehicle: Klucel (hydroxypropylcellulose) (HPC)
[12] = dose: 50.0 mg/kg/injection, schedule: Q04DX003 (ip), vehicle: Klucel (hydroxypropylcellulose) (HPC)
[13] = dose: 100.0 mg/kg/injection, schedule: Q04DX003 (ip), vehicle: Klucel (hydroxypropylcellulose) (HPC)
[14] = dose: 100.0 mg/kg/injection, schedule: Q01DX001 (ip), vehicle: Klucel (hydroxypropylcellulose) (HPC)
[15] = dose: 200.0 mg/kg/injection, schedule: Q01DX001 (ip), vehicle: Klucel (hydroxypropylcellulose) (HPC)
[16] = dose: 200.0 mg/kg/injection, schedule: Q04DX003 (ip), vehicle: Klucel (hydroxypropylcellulose) (HPC)
[17] = dose: 400.0 mg/kg/injection, schedule: Q01DX001 (ip), vehicle: Klucel (hydroxypropylcellulose) (HPC)
[18] = dose: 400.0 mg/kg/injection, schedule: Q04DX003 (ip), vehicle: Klucel (hydroxypropylcellulose) (HPC)

Measured: T/C

C[C@]12C=CC(=O)C=C1CC[C@H]1[C@@H]3C[C@@H](O)[C@](O)(C(=O)CO)[C@@]3(C)C[C@H](O)[C@@]12F
inactive: dose: 50.0 mg/kg/injection, schedule: Q04DX003 (sc), vehicle: steriod suspending solution 102 % of control | dose: 100.0 mg/kg/injection, schedule: Q01DX001 (sc), vehicle: steriod suspending solution 105 % of control | dose: 100.0 mg/kg/injection, schedule: Q04DX003 (sc), vehicle: steriod suspending solution 97 % of control | dose: 200.0 mg/kg/injection, schedule: Q01DX001 (sc), vehicle: steriod suspending solution 107 % of control | dose: 200.0 mg/kg/injection, schedule: Q04DX003 (sc), vehicle: steriod suspending solution 106 % of control | dose: 400.0 mg/kg/injection, schedule: Q01DX001 (sc), vehicle: steriod suspending solution 105 % of control | dose: 400.0 mg/kg/injection, schedule: Q04DX003 (sc), vehicle: steriod suspending solution 110 % of control

CCNC(C)(C)C(SS(=O)(=O)O)c1ccc(Cl)s1 (stereo not given)
inactive: [1] 96 % of control | [2] 102 % of control | [3] 90 % of control | [4] 96 % of control | dose: 400.0 mg/kg/injection, schedule: Q04DX003 (ip), vehicle: saline with Tween-80 92 % of control

O=C(O)c1cccc(Br)c1
inactive: [5] 102 % of control | [6] 98 % of control | [7] 102 % of control

C/C=C(\C)C1(CC)C(=O)NC(=O)N(C)C1=O (stereo not given)
inactive: dose: 75.0 mg/kg/injection, schedule: Q01DX001 (ip), vehicle: saline 93 % of control | dose: 150.0 mg/kg/injection, schedule: Q01DX001 (ip), vehicle: saline 97 % of control

O=C(CCOCc1ccccc1)N1Cc2cc3ccccc3nc2C1=O
inactive: dose: 10.0 mg/kg/injection, schedule: Q07DX002 (ip), vehicle: alcohol 89 % of control | dose: 20.0 mg/kg/injection, schedule: Q07DX002 (ip), vehicle: alcohol 99 % of control | dose: 40.0 mg/kg/injection, schedule: Q07DX002 (ip), vehicle: alcohol 92 % of control | dose: 80.0 mg/kg/injection, schedule: Q07DX002 (ip), vehicle: alcohol 86 % of control

C=C(Br)CN(CC)C(C)=O
inactive: [8] 108 % of control

CCN(CC)CCCC(C)Nc1ccnc(/C=C/c2ccc(Cl)cc2)c1 (stereo not given)
inactive: dose: 12.0 mg/kg/injection, schedule: Q01DX009 (ip), vehicle: Klucel (hydroxypropylcellulose) (HPC) 92 % of control | [9] 97 % of control | [10] 100 % of control | dose: 25.0 mg/kg/injection, schedule: Q01DX009 (ip), vehicle: saline 101 % of control | [11] 103 % of control | dose: 50.0 mg/kg/injection, schedule: Q01DX009 (ip), vehicle: Klucel (hydroxypropylcellulose) (HPC) 95 % of control | dose: 50.0 mg/kg/injection, schedule: Q01DX009 (ip), vehicle: saline 95 % of control | [12] 97 % of control | dose: 75.0 mg/kg/injection, schedule: Q04DX003 (ip), vehicle: saline 105 % of control | [13] 96 % of control | dose: 300.0 mg/kg/injection, schedule: Q04DX003 (ip), vehicle: saline 93 % of control

NCCSc1ccccc1
inactive: dose: 25.0 mg/kg/injection, schedule: Q04DX002 (ip), vehicle: saline with Tween-80 92 % of control | dose: 50.0 mg/kg/injection, schedule: Q04DX002 (ip), vehicle: saline with Tween-80 101 % of control | dose: 100.0 mg/kg/injection, schedule: Q04DX002 (ip), vehicle: saline with Tween-80 96 % of control and 114 % of control

NCCNCCNCCN1CC1
inactive: dose: 10.0 mg/kg/injection, schedule: Q04DX002 (ip), vehicle: saline 97 % of control | dose: 20.0 mg/kg/injection, schedule: Q04DX002 (ip), vehicle: saline 97 % of control

CCCCCCCCCC(=O)CCCC
inactive: [1] 122 % of control | [8] 94 % of control | [3] 96 % of control | dose: 200.0 mg/kg/injection, schedule: Q04DX003 (ip), vehicle: saline 98 % of control | dose: 400.0 mg/kg/injection, schedule: Q01DX009 (ip), vehicle: saline with Tween-80 104 % of control | dose: 400.0 mg/kg/injection, schedule: Q04DX003 (ip), vehicle: saline 94 % of control

Oc1c(Br)cc(Br)cc1C=Nc1ccc(I)cc1.Oc1c(Br)cc(Br)cc1C=Nc1ccc(I)cc1.[Co]
inactive: [2] 98 % of control | [4] 92 % of control

CS(=O)(=O)OC1CCCCC1Oc1ccc(Br)cc1 (stereo not given)
inactive: [14] 106 % of control | [13] 101 % of control | [15] 104 % of control | [16] 113 % of control | [17] 103 % of control | [18] 98 % of control

Nc1nc(N)c2nc(CNc3ccc(Cl)c(Cl)c3)cnc2n1
inactive: dose: 1.0 mg/kg/injection, schedule: Q01DX009 (ip), vehicle: saline 103 % of control | dose: 2.0 mg/kg/injection, schedule: Q01DX009 (ip), vehicle: saline 101 % of control | dose: 4.0 mg/kg/injection, schedule: Q01DX009 (ip), vehicle: saline 94 % of control | dose: 4.0 mg/kg/injection, schedule: Q04DX003 (ip), vehicle: saline 90 % of control | dose: 8.0 mg/kg/injection, schedule: Q01DX009 (ip), vehicle: saline 90 % of control | dose: 8.0 mg/kg/injection, schedule: Q04DX003 (ip), vehicle: saline 100 % of control | dose: 16.0 mg/kg/injection, schedule: Q01DX009 (ip), vehicle: saline 87 % of control | dose: 16.0 mg/kg/injection, schedule: Q04DX003 (ip), vehicle: saline 92 % of control | dose: 32.0 mg/kg/injection, schedule: Q04DX003 (ip), vehicle: saline 97 % of control | dose: 64.0 mg/kg/injection, schedule: Q04DX003 (ip), vehicle: saline 89 % of control

CC(C)CC(C=NCC(CCN(C)C)(CC(C)C)c1cccc2ccccc12)(CCN(C)C)c1cccc2ccccc12 (stereo not given)
inactive: dose: 12.5 mg/kg/injection, schedule: Q01DX009 (ip), vehicle: Klucel (hydroxypropylcellulose) (HPC) 106 % of control | [9] 106 % of control | [10] 88 % of control | [11] 94 % of control | [12] 92 % of control

CC(=O)c1ccccc1C(C)c1ccc(C)c2ccccc12 (stereo not given)
inactive: [5] 120 % of control | [6] 97 % of control | [7] 104 % of control

C=CCN1C(=O)C2C3C=CC(C3)C2C1=O (stereo not given)
inactive: dose: 6.0 mg/kg/injection, schedule: Q04DX002 (ip), vehicle: Klucel (hydroxypropylcellulose) (HPC) 114 % of control | dose: 25.0 mg/kg/injection, schedule: Q04DX002 (ip), vehicle: Klucel (hydroxypropylcellulose) (HPC) 114 % of control | dose: 50.0 mg/kg/injection, schedule: Q04DX002 (ip), vehicle: Klucel (hydroxypropylcellulose) (HPC) 117 % of control | [5] 97 % of control

CC(C)CCCC(C)C1CCC2C3CC(O)C4=CC(O)CCC4(C)C3CCC12C (stereo not given)
inactive: dose: 75.0 mg/kg/injection, schedule: Q01DX001 (ip), vehicle: other 92 % of control | dose: 150.0 mg/kg/injection, schedule: Q01DX001 (ip), vehicle: other 93 % of control

Cc1ccc(C)c(NC(=O)c2ccccc2N)c1
inactive: dose: 100.0 mg/kg/injection, schedule: Q01DX009 (ip), vehicle: Klucel (hydroxypropylcellulose) (HPC) 98 % of control | [13] 104 % of control | dose: 200.0 mg/kg/injection, schedule: Q01DX009 (ip), vehicle: Klucel (hydroxypropylcellulose) (HPC) 93 % of control | [16] 97 % of control | dose: 400.0 mg/kg/injection, schedule: Q01DX009 (ip), vehicle: Klucel (hydroxypropylcellulose) (HPC) 93 % of control | [18] 92 % of control

COC1OC(COC(c2ccccc2)(c2ccccc2)c2ccccc2)C(O)C(O)C1NC(C)=O (stereo not given)
inactive: [14] 96 % of control | [15] 96 % of control | [17] 101 % of control

— PubChem BioAssay AID248 (DTP/NCI, 2004)
